Results as given in patent US12433857B2, “Conjugate and cancer therapeutic agent” (Tokyo Institute of Technology, priority 2019, dated 2025).
“Also recorded” adds a separate entry of the source. Where a name gives a salt, the structure may show the parent alone.

Key:
[1] = Pharmacokinetics (blood retention, tumor accumulation) in subcutaneous CT26 tumor mouse model; type: in vivo; details: intravenous
Procedure: To evaluate the blood retention and the tumor accumulation of DFO and PEG-P[Asp(DFO)m]n), a DFO/Ga (III) complex and a PEG-P[Asp(DFO)m]n/Ga (III) complex were intravenously injected into the subcutaneous CT26 tumor mouse model, and the Ga contents in the blood and the tumor after a predetermined period of time were measured by ICP-MS.
300 μL of a 26.8 mM GaCl3/D-PBS solution was added to 2.70 mL of a 16.9 mM DFO/D-PBS solution, and the resultant solution was stirred overnight. The pH was adjusted to 7.4 with NaOH, and then the solution was filtered through a filter.
300 μL of 26.8 mM GaCl3/D-PBS solution was added to 2.70 mL of a 1.71 mM PEG-P[Asp(DFO)10]35/D-PBS solution (DFO concentration=16.9 mM), and the resultant solution was stirred overnight. The reaction solution was placed in an ultrafiltration membrane (MWCO=10 kD) and subjected to ultrafiltration five times. 3 mL of D-PBS was added to the purified solution, and the resultant solution was filtered through a filter. […]
100 μl of the prepared solution described above was intravenously administered (DFO: […]) to the tail vein of a model mouse of which the tumor size reached about 200 mm^3. […] After filling up to 10 mL with pure water and filtration with a hydrophobic filter, the gallium contents of the blood and the various organs were measured by ICP-MS. […]

[2] = tested on: various cancer cell lines; details: Non-Patent Documents 1 to 3; cited from earlier work
[3] = tested on: DLD-1 cells; assay: Cell cycle analysis by propidium iodide staining; type: cell-based, human; details: 72 hours
Procedure: The cell cycle was analyzed by propidium iodide (PI) staining to investigate the mechanism of cancer cell proliferation suppression of DFO and PEG-P[Asp(DFO)m]n.
[Preparation of DFO Solution and PEG-P[Asp(DFO)10]35 Solution] • DFO/D-PBS solution: 45.0 μM • PEG-P[Asp(DFO)10]35/D-PBS solution: 61.0 μM (DFO concentration=600 μM)
DLD-1 cells were seeded on a 6-well plate at 2.0×10^5 cells/well and pre-cultured at 37° C. under 5% CO2 for 24 hours. The prepared solution described above was diluted 10-fold with RPMI, and then 3 mL was added to each well followed by incubating for 72 hours. After washing with 3 mL of D-PBS, 700 μL of a Trypsin-EDTA solution was added thereto followed by incubating for 10 min. After confirming that the cells had been peeled off under an optical microscope, 700 μL of D-PBS containing 10% FBS was added thereto, and the cells were sufficiently suspended. The suspension was centrifuged at 1,200 rpm for 3 min to remove the supernatant. 500 μL of D-PBS was added to the cell pellet, which was subsequently suspended. The suspension was dropwise added to 4.5 mL of 70% ethanol and fixed in a −20° C. freezer overnight. […] Finally, the suspension was filtered through a cell strainer, and the fluorescence of propidium iodide was measured using FCM. The measured data were analyzed by ModFit LT. […]

[4] = tested on: DLD-1 cells; assay: Cell proliferation suppressive action by CCK-8 assay; type: cell-based, human; details: 72 hours, CCK-8, absorbance at 450 nm
Procedure: The cancer cell proliferation suppressive action of PEG-P[Asp(DFO)m]n was evaluated by CCK-8 assay.
[Preparation of DFO Solution, PEG-P[Asp(DFO)10]35 Solution, and PEG-P[Asp(DFO)26]78 Solution] • DFO/D-PBS solution: 3.00 mM • PEG-P[Asp(DFO)10]35/D-PBS solution: 0.305 mM (DFO concentration=3.00 mM) • PEG-P[Asp(DFO)26]78/D-PBS solution: 0.118 mM (DFO concentration=3.00 mM)
DLD-1 cells were seeded on a 96-well plate at 1.0×10^3 cells/well and pre-cultured at 37° C. under 5% CO2 for 24 hours. 10 μL of the prepared solution described above was added to each well followed by incubating for 72 hours. 10 μL of CCK-8 solution was added to each well, and after incubating for 2 hours, the absorbance at 450 nm was measured. The results are shown as the value of mean±S.D. (n=5), and a statistically significant difference was evaluated by the t-test (****p<0.0001).

[5] = tested on: DLD-1 cells; assay: Free iron in the cytoplasm detected with FerroOrange; type: cell-based, human; details: 2.00 mM DFO-concentration solution diluted 10-fold, 24 hours
Procedure: To investigate whether DFO and PEG-P[Asp(DFO)m]n would decrease free iron in the cytoplasm, the free iron in the cytoplasm of cells treated with DFO and PEG-P[Asp(DFO)m]n was detected with FerroOrange.
[Preparation of DFO Solution and PEG-P[Asp(DFO)10]35 Solution] • DFO/D-PBS solution: 2.00 mM • PEG-P[Asp(DFO)10]35/D-PBS solution: […] (DFO concentration=2.00 mM) [Observation with Confocal Microscope]
DLD-1 cells were seeded on 35 mm^2 glass base dishes at 3.0×10^5 cells/well and pre-cultured at 37° C. under 5% CO2 for 24 hours. After removing the solution, 2 mL of the prepared solution described above, diluted 10-fold with RPMI, was added to each dish followed by incubating for 24 hours. After washing with 2 mL of serum-free RPMI, 1 mL of serum-free RPMI containing […] FerroOrange was added thereto followed by incubating in a dark place for 30 min. Thereafter, the fluorescence of FerroOrange was observed by CLSM.
DLD-1 cells were seeded on a 96-well plate at 1.0×10^4 cells/well and pre-cultured at 37° C. under 5% CO2 for 24 hours. After removing the solution, 100 μL of the prepared solution described above, diluted 10-fold with RPMI, was added to each well followed by incubating for 24 hours. […] Then, the fluorescence intensity of FerroOrange was measured with a plate reader. […] The statistical significance was evaluated by Tukey's multiple comparison test (****p<0.0001).

[6] = tested on: DLD-1 cells; assay: Apoptosis induction by PI staining and Annexin V staining; type: cell-based, human; details: 1.00 mM DFO-concentration solution diluted 10-fold, 24 hours
Procedure: In order to investigate whether DFO and PEG-P[Asp(DFO)m]n would induce apoptosis, apoptotic cells were detected by PI staining and Annexin V staining.
[Preparation of DFO Solution and PEG-P[Asp(DFO)10]35 Solution] • DFO/D-PBS solution: 1.00 mM • PEG-P[Asp(DFO)10]35/D-PBS solution: 100 μM (DFO concentration=1.00 mM)
DLD-1 cells were seeded on a 6-well plate at 1.0×10^5 cells/well and pre-cultured at 37° C. under 5% CO2 for 24 hours. After removing the solution, 3 mL of the prepared solution described above, diluted 10-fold with RPMI, was added to each well followed by incubating for 24 hours. After washing with 3 mL of D-PBS, 700 μL of a Trypsin-EDTA solution was added thereto followed by incubating for 10 min. After confirming that the cells had peeled off under an optical microscope, 700 μL of RPMI was added and suspended sufficiently. The suspension was centrifuged at 1,200 rpm for 3 min to remove the supernatant. 500 μL of RPMI was added, the number of cells was measured, and the cells in each sample were made to the same number. The suspension was centrifuged at 1,200 rpm for 3 min to remove the supernatant. […] After adding 400 μL of the binding buffer, the suspension was filtered through a cell strainer, and the fluorescence of PI and Annexin V was measured using FCM. […] The statistical significance was evaluated by Tukey's multiple comparison test (**** p<0.0001).

[7] = Non-Patent Documents 4 to 6; cited from earlier work
[8] = tested on: DLD-1 cells; assay: DNA synthesis inhibition by BrdU staining; type: cell-based, human; details: 72 hours
Procedure: To investigate the mechanism of cell cycle arrest in the S phase by DFO and PEG-P[Asp(DFO)m]n, DNA synthesis inhibition was evaluated by BrdU staining.
[Preparation of DFO Solution and PEG-P[Asp(DFO)10]35 Solution] • DFO/D-PBS solution: 450 μM • PEG-P[Asp(DFO)10]35/D-PBS solution: […] (DFO concentration=600 μM) [Observation with Confocal Microscope]
DLD-1 cells were seeded on 35 mm^2 glass base dishes at 1.0×10^5 cells/well and pre-cultured at 37° C. under 5% CO2 for 24 hours. After removing the solution, 3 mL of the prepared solution described above, diluted 10-fold with RPMI, was added to each well followed by incubating for 72 hours. Then, 330 μL of a 10 mM BrdU/D-PBS solution was added thereto followed by incubating for 1 hour. After removing the solution, 1 mL of 1.0 M HCl solution was added thereto followed by incubating for 10 min. After removing the solution, 1 mL of a 0.1 M sodium tetraborate buffer (pH 8.5) was added thereto followed by incubating for 30 min. […]
DLD-1 cells were seeded on a 6-well plate at 2.0×10^5 cells/well and pre-cultured at 37° C. under 5% CO2 for 24 hours. […] The number of cells was measured, and the cells in each sample were made to the same number. […] Finally, the suspension was filtered through a cell strainer, and the fluorescence of BrdU was measured using FCM.

## CC(=O)N(O)CCCCCNC(=O)CCC(=O)N(O)CCCCCNC(=O)CCC(=O)N(O)CCCCCN [DFO, Deferoxamine mesylate]
[1]
  blood retention (in words): rapid disappearance from the blood; also recorded: disappeared from the blood at an early stage
[2]
  cell proliferation suppressive effect: cell proliferation suppressive effect through cell cycle arrest
[3]
  cell cycle arrest: induced cell cycle arrest in the S phase
[4]
  cell proliferation suppression: significantly suppressed the proliferation
[5]
  free iron in the cytoplasm (FerroOrange fluorescence): markedly decreased free iron in the cytoplasm
[6]
  proportion of apoptotic and necrotic cells: significantly increased the proportion of apoptotic and necrotic cells
[7]
  half-life of the in-blood concentration: ≤ 20 min
[8]
  DNA synthesis inhibition (BrdU uptake): BrdU uptake was significantly suppressed
